Read-outs that look alike come from different tables or passages of the source.
Legend:
[1] = Mouse PK studies after oral and IV dosing; type: in vivo; details: for F: PO 3 mg/kg vs IV 1 mg/kg; for AUC(0-t) / clearance / half-life / Vd / Cmax / Tmax: in vivo; for clearance: read-out: IV Cl (converted); for Vd: read-out: IV VSS
Description: The pharmacokinetics of representative Compounds of the Disclosure were determined after oral and IV dosing at the concentrations indicated in mouse (Table 7). […] The vehicles used in these studies are either (i) 10% PEG400+90% PBS (adjusted to pH to 8.0 by 0.5 N NaOH); or (ii) 100% PEG200.

AR protein = target: T1, AR protein (Homo sapiens, UniProt P10275); test: Western blotting analysis of AR protein levels in VCaP cells, band quantification, DC50/DC90; type: cell-based; details: VCaP cells, Table 6; read-out: VCaP DC50
T1 construct: endogenous in cells; host or cells: VCaP
T1 sequence (P10275 1-920): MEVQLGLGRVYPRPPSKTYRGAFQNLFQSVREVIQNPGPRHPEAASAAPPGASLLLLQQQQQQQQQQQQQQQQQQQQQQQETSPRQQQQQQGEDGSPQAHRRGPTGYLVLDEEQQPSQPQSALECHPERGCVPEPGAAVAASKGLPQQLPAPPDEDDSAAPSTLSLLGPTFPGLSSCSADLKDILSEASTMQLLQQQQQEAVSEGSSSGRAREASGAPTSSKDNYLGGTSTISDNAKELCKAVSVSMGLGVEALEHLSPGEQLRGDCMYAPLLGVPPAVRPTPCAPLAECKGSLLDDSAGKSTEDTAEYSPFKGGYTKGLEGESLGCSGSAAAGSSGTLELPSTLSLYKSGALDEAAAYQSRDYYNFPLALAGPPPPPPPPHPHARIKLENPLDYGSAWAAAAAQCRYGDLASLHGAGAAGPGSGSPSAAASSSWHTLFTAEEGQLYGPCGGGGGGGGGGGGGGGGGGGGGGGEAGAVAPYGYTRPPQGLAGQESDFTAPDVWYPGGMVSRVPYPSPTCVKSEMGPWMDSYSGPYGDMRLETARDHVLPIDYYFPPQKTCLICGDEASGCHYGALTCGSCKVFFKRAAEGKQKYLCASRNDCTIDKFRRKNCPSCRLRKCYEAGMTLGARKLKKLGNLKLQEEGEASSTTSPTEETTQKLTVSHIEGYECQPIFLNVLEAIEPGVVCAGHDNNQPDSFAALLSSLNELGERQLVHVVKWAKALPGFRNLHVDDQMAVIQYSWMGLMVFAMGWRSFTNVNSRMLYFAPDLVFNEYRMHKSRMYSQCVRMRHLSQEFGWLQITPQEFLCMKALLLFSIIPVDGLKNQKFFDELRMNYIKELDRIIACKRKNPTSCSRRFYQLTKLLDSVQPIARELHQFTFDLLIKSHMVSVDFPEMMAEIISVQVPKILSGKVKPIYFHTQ
In short: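 VCaP cells treated with compounds, lysed in RIPA and probed for AR by Western blot with GAPDH loading control. Band intensities normalised to GAPDH; DC50 from curve fit, DC90 calculated from DC50 and Hill slope via four-parameter equation.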

[2] = iv, 1 mg/kg, IV, dose 1 mg/kg, read-out: IV AUC(0 − t)
[3] = iv, 1 mg/kg, IV, dose 1 mg/kg, read-out: IV T1/2 (converted)
[4] = po, 3 mg/kg, PO, dose 3 mg/kg, read-out: PO AUC(0 − t)
[5] = po, 3 mg/kg, PO, dose 3 mg/kg, read-out: PO T1/2 (converted)

SMILES	F [1] [%]	AUC(0-t) [1, 2] [ng·h/mL]	clearance ([1]; iv, 1 mg/kg, IV, dose 1 mg/kg) [mL/min/kg]	half-life [1, 3] [h]	Vd ([1]; iv, 1 mg/kg, IV, dose 1 mg/kg) [L/kg]	Cmax ([1]; po, 3 mg/kg) [ng/mL]	Tmax ([1]; po, 3 mg/kg) [h]	AUC(0-t) [1, 4] [ng·h/mL]	half-life [1, 5] [h]	DC50 (AR protein) [nM]	IV AUC(0 − t) ([1]; IV, dose 1 mg/kg) [ng·h/mL]	IV Cl ([1]; IV, dose 1 mg/kg) [mL/min/kg]	IV T1/2 ([1]; IV, dose 1 mg/kg) [h]	IV VSS ([1]; IV, dose 1 mg/kg) [L/kg]	PO AUC(0 − t) ([1]; PO, dose 3 mg/kg) [ng·h/mL]	PO Cmax ([1]; PO, dose 3 mg/kg) [ng/mL]	PO T1/2 ([1]; PO, dose 3 mg/kg) [h]	PO Tmax ([1]; PO, dose 3 mg/kg) [h]
C[C@H]1CC2(CCN(c3ccc(C(=O)N4CCN(CC5CN(c6ccc7c(c6)C(=O)N(C6CCC(=O)NC6=O)C7=O)C5)CC4)cc3F)CC2)CN1c1ccc(C#N)c(Cl)c1 (stereo partly drawn) [Cpd. No. 528, 2-chloro-4-((3S)-8-(4-(4-((1-(2-(2,6-dioxopiperidin-3-yl)-1,3-dioxoisoindolin-5-yl)azetidin-3-yl)methyl)piperazine-1-carbonyl)-2-fluorophenyl)-3-methyl-2,8-diazaspiro[4.5]decan-2-yl)benzonitrile]	33	1710	8.33	8.9	5.7	149	1.7	1680	8.8	< 1	–	–	–	–	–	–	–	–
C[C@H]1CC2(CCN(c3cnc(C(=O)N4CCC(CN5CCN(c6ccc7c(c6)C(=O)N(C6CCC(=O)NC6=O)C7=O)CC5)CC4)cn3)CC2)CN1c1ccc(C#N)c(Cl)c1 (stereo partly drawn) [Cpd. No. 492, 2-chloro-4-((3S)-8-(5-(4-((4-(2-(2,6-dioxopiperidin-3-yl)-1,3-dioxoisoindolin-5-yl)piperazin-1-yl)methyl)piperidine-1-carbonyl)pyrazin-2-yl)-3-methyl-2,8-diazaspiro[4.5]decan-2-yl)benzonitrile]	15	277	54.5	3.3	7.71	59	0.5	123	2.1	1 to 10	–	–	–	–	–	–	–	–
C[C@H]1CC2(CCN(c3ccc(C(=O)N4CCC(CN5Cc6cc7c(cc6C5)C(=O)N(C5CCC(=O)NC5=O)C7=O)CC4)nn3)CC2)CN1c1ccc(C#N)c(Cl)c1 (stereo partly drawn) [Cpd. No. 496, 2-chloro-4-((3S)-8-(6-(4-((6-(2,6-dioxopiperidin-3-yl)-5,7-dioxo-3,5,6,7-tetrahydropyrrolo[3,4-f]isoindol-2(1H)-yl)methyl)piperidine-1-carbonyl)pyridazin-3-yl)-3-methyl-2,8-diazaspiro[4.5]decan-2-yl)benzonitrile]	72	3030	5.33	5.8	1.46	1420	1	6550	4.1	< 1	–	–	–	–	–	–	–	–
C[C@H]1CC2(CCN(c3ccc(C(=O)N4CCC(N5CCN(c6ccc7c(c6)C(=O)N(C6CCC(=O)NC6=O)C7=O)CC5)CC4)nn3)CC2)CN1c1ccc(C#N)c(Cl)c1 (stereo partly drawn) [Cpd. No. 499, 2-chloro-4-((3S)-8-(6-(4-(4-(2-(2,6-dioxopiperidin-3-yl)-1,3-dioxoisoindolin-5-yl)piperazin-1-yl)piperidine-1-carbonyl)pyridazin-3-yl)-3-methyl-2,8-diazaspiro[4.5]decan-2-yl)benzonitrile]	29	1920	8.17	3.6	1.73	404	1.3	1670	2	< 1	–	–	–	–	–	–	–	–
C[C@H]1CC2(CCN(c3ccc(C(=O)N4CCN(C5CCN(c6ccc7c(c6)C(=O)N(C6CCC(=O)NC6=O)C7=O)CC5)CC4)cc3F)CC2)CN1c1ccc(C#N)c(Cl)c1 (stereo partly drawn) [Cpd. No. 522, 2-chloro-4-((3S)-8-(4-(4-(1-(2-(2,6-dioxopiperidin-3-yl)-1,3-dioxoisoindolin-5-yl)piperidin-4-yl)piperazine-1-carbonyl)-2-fluorophenyl)-3-methyl-2,8-diazaspiro[4.5]decan-2-yl)benzonitrile]	33	–	–	–	–	–	–	–	–	< 1	1723	8.3	8.6	4.6	1731	196	6.0	2.0
C[C@H]1CC2(CCN(c3cnc(C(=O)N4CCN(CC5CCN(c6ccc7c(c6)C(=O)N(C6CCC(=O)NC6=O)C7=O)CC5)CC4)cn3)CC2)CN1c1ccc(C#N)c(Cl)c1 (stereo partly drawn) [Cpd. No. 494, 2-chloro-4-((3S)-8-(5-(4-((1-(2-(2,6-dioxopiperidin-3-yl)-1,3-dioxoisoindolin-5-yl)piperidin-4-yl)methyl)piperazine-1-carbonyl)pyrazin-2-yl)-3-methyl-2,8-diazaspiro[4.5]decan-2-yl)benzonitrile]	9	180	87.3	5.4	16.9	36	0.5	49	2.4	1 to 10	–	–	–	–	–	–	–	–
C[C@H]1CC2(CCN(c3cnc(C(=O)N4CCC(N5CCN(c6cc7c(cc6F)C(=O)N(C6CCC(=O)NC6=O)C7=O)CC5)CC4)cn3)CC2)CN1c1ccc(C#N)c(Cl)c1 (stereo partly drawn) [Cpd. No. 498, 2-chloro-4-((3S)-8-(5-(4-(4-(2-(2,6-dioxopiperidin-3-yl)-6-fluoro-1,3-dioxoisoindolin-5-yl)piperazin-1-yl)piperidine-1-carbonyl)pyrazin-2-yl)-3-methyl-2,8-diazaspiro[4.5]decan-2-yl)benzonitrile]	45	419	36.8	1.9	3.22	191	0.8	572	2.3	1 to 10	–	–	–	–	–	–	–	–
C[C@H]1CC2(CCN(c3ccc(C(=O)N4CCC(N5CCN(c6ccc7c(c6)C(=O)N(C6CCC(=O)NC6=O)C7=O)CC5)CC4)cc3F)CC2)CN1c1ccc(C#N)c(Cl)c1 (stereo partly drawn) [Cpd. No. 511, 2-chloro-4-((3S)-8-(4-(4-(4-(2-(2,6-dioxopiperidin-3-yl)-1,3-dioxoisoindolin-5-yl)piperazin-1-yl)piperidine-1-carbonyl)-2-fluorophenyl)-3-methyl-2,8-diazaspiro[4.5]decan-2-yl)benzonitrile]	28	9040	1.67	8	0.9	668	2.7	7520	6.4	< 1	–	–	–	–	–	–	–	–
C[C@H]1CC2(CCN(c3ccc(C(=O)N4CCN(CC5CN(c6cc7c(cc6F)C(=O)N(C6CCC(=O)NC6=O)C7=O)C5)CC4)cc3)CC2)CN1c1ccc(C#N)c(Cl)c1 (stereo partly drawn) [Cpd. No. 502, 2-chloro-4-((3S)-8-(4-(4-((1-(2-(2,6-dioxopiperidin-3-yl)-6-fluoro-1,3-dioxoisoindolin-5-yl)azetidin-3-yl)methyl)piperazine-1-carbonyl)phenyl)-3-methyl-2,8-diazaspiro[4.5]decan-2-yl)benzonitrile]	32	3490	3.33	10	3	289	3.3	3390	9.5	< 1	–	–	–	–	–	–	–	–
C[C@H]1CC2(CCN(c3ccc(C(=O)N4CCN(CC5CN(c6ccc7c(c6)C(=O)N(C6CCC(=O)NC6=O)C7=O)C5)CC4)c(F)c3)CC2)CN1c1ccc(C#N)c(Cl)c1 (stereo partly drawn) [Cpd. No. 529, 2-chloro-4-((3S)-8-(4-(4-((1-(2-(2,6-dioxopiperidin-3-yl)-1,3-dioxoisoindolin-5-yl)azetidin-3-yl)methyl)piperazine-1-carbonyl)-3-fluorophenyl)-3-methyl-2,8-diazaspiro[4.5]decan-2-yl)benzonitrile]	45	5130	3.33	10.2	2.2	507	3.3	6920	8.5	1 to 10	–	–	–	–	–	–	–	–
